According to patent US20230087844A1, “USE OF N2-QUINCLINE OR ISOQUINOLINE SUBSTITUTED PURINE DERIVATIVES IN CANCER TREATMENT” (SHANGHAI HUAYU BIOTECHNOLOGY CO., LTD., priority 2020, published 2023):
Marks after values point to notes of the source that are not given here.

Tests used:
[1] = system: SGC-7901 human gastric cancer cells; assay: SGC-7901 gastric cancer xenograft in mice; conditions: 5 mg/kg I.P., D0, 6
Protocol: Mice body weights and tumor sizes were measured 2 to 3 times a week. The tumor volume (V) was calculated as (length× width^2)/2. T/C (%) was calculated as (T-T0)/(C-C0)×100, wherein T and C represented the tumor volumes in the administration group and the vehicle group respectively at the end of the experiment, while T0 and C0 represented the tumor volumes in the administration group and the vehicle group respectively at the beginning of the experiment. And RTV was calculated as (Tumor volume at Day N/Tumor volume at Day 0).
BALB/cA-nude mice, 5-6 weeks old, purchased from Shanghai SLAC Laboratory Animal Co., Ltd, were subcutaneously inoculated with SGC-7901 human gastric cancer cells (from Cell Bank, Chinese Academy of Sciences).
(§7) Mice body weights and tumor sizes were measured 2 to 3 times a week. The tumor volume, T/C and RTV were calculated as described above. Mice were sacrificed on Day 18.

[2] = system: A549 human non-small cell lung cancer cells; assay: A549 non-small cell lung cancer xenograft in mice; conditions: 5 mg/kg I.P., D0, 3
Protocol: Mice body weights and tumor sizes were measured 2 to 3 times a week. The tumor volume (V) was calculated as (length× width^2)/2. T/C (%) was calculated as (T-T0)/(C-C0)×100, wherein T and C represented the tumor volumes in the administration group and the vehicle group respectively at the end of the experiment, while T0 and C0 represented the tumor volumes in the administration group and the vehicle group respectively at the beginning of the experiment. And RTV was calculated as (Tumor volume at Day N/Tumor volume at Day 0). Mice were sacrificed on Day-14.
BALB/cA-nude mice, 5-6 weeks old, purchased from Shanghai SLAC Laboratory Animal Co., Ltd, were subcutaneously inoculated with A549 human non-small cell lung cancer cells (from ATCC).
as §7

H526 = assay: Tumor cell death by MTT, H526; format: cell-based, human; conditions: 10 μM
Protocol: (§1) The in vitro inhibitory effect of Compound A alone or in combination with a PARP inhibitor on tumor cell growth was tested using human small cell lung cancer (SCLC) cell lines, including H69 (ATCC® HTB-119™), H526 (ATCC® CRL-5811™) and H446 (TCHu196, National Collection of Authenticated Cell Cultures).
(§2) Briefly, the cells were seeded into a 96-well dish with RPMI-1640 (10-040-CV, Coming cellgro) containing 10% fetal bovine serum (10270-106, GIBCO), 1% penicillin and 1% streptomycin (BaSalMedia, S110JV), at an initial density of 3×10^3 cells per well ([…]), and cultured at a 37° C., 5% CO2 humidified incubator for 24 hours. Then, the culture media were added with Compound A (final concentration at 20 nM), olaparib (APEXBIO, A4154, a PARP inhibitor, final concentration at 10 μM), Compound A + olaparib (final concentrations at20 nM and 10 μM), or PBS (vehicle), respectively, and the cells were cultured for 48 hours. Then, cell viability was determined by MTT. The test was done in triplicate.
(§3) Cell death rate was calculated by the following formula.
(§4) Cell death rate=[1−(ODtest-ODvehicle)]×100%
(§5) Cell death rates were analyzed using student's t-test, and group differences were deemed statistically significant when the p-value was lower than 0.05. Zheng-Jun Jin's Q value was calculated using the formula Q=EA+B/(EA+EB-EA×EB) to assess the combined effect of Compound A and the PARP inhibitor, wherein EA+B, EA, and EB referred to the cell death rates caused by the combined treatment, Compound A treatment and PARP inhibitor treatment, respectively. A Q value higher than 1.15 meant a synergistic […] effect.
(§6) Another PARP inhibitor, rucaparib (APEXBIO, A4156), was tested alone or with Compound A for inhibitory effect on tumor cell growth, following the protocol of Example 9.

H69 = assay: Tumor cell death by MTT, H69; format: cell-based, human; conditions: 10 μM
Protocol: as §1, §2, §3, §4, §5, §6

H446 = assay: Tumor cell death by MTT, H446; format: cell-based, human; conditions: 10 μM
Protocol: as §1, §2, §3, §4, §5, §6

[3] = system: Colon26 murine colon cancer cells; assay: Colon26 colon cancer growth in mice; format: in vivo, F1 mice; conditions: for TGI / Tumor weight: Day 8
Protocol: F1 mice, 18-22 g, purchased from Shanghai Bi-Kai Laboratory Animal Co., Ltd, were subcutaneously inoculated with Colon26 murine colon cancer cells (from Cell Bank, Chinese Academy of Sciences) at the right axilla. […] Tumor growth inhibition (TGI) was calculated.

MV-4-11 cells [4] = assay: MV-4-11 AML xenograft in mice (Example 7); format: in vivo, BALB-cA nude mice; conditions: D0-20; for Complete remission: number of mice, N 6
Protocol: Mice body weights and tumor sizes were measured twice a week. The tumor volume, T/C and TGI (Tumor growth inhibition=(average tumor volume in vehicle group-average tumor volume in administration group)/average tumor volume in vehicle group ×100%) were calculated. Mice were sacrificed on Day 21.

MV-4-11 cells [5] = assay: MV-4-11 AML xenograft in mice, combination with daunorubicin (Example 8); format: in vivo, BALB-cA nude mice; conditions: 2 mg/kg I.V., D0-10
Protocol: Mice body weights and tumor sizes were measured twice a week. The tumor volume, T/C and TGI (Tumor growth inhibition=(average tumor volume in vehicle group-average tumor volume in administration group)/average tumor volume in vehicle group ×100%) were calculated. Mice were sacrificed on Day 21. Female BALB-cA nude mice, 6-7 weeks old, purchased from Shanghai Ling-chang Biotech Co., Ltd, were subcutaneously inoculated with MV-4-11 cells (from ATCC). […] Mice body weights and tumor sizes were measured twice a week. The tumor volume, T/C and tumor volume based TGI were calculated as described above. Mice were sacrificed on Day 11.

[6] = system: Ls-174t human colon cancer cells; assay: Ls-174t colon cancer xenograft in mice; format: in vivo, BALB/cA-nude mice; conditions: 153 mg/kg I.P., D0-4, 7-11
From the text: Mice were sacrificed on Day-14.

[7] = system: S180 murine sarcoma cancer cells; assay: S180 sarcoma growth in mice; conditions: 30 mg/kg I.P., D1-7
Protocol: On Day 8, the mice were weighed and sacrificed, and the tumors were collected and weighed.
Tumor growth inhibition (TGI) was calculated by the following formula. Tumor growth inhibition=(average tumor weight in vehicle group-average tumor weight in administration group)/average tumor weight in vehicle group×100%

N.N.[Cl][Pt][Cl] [Cisplatin, cisplatin, reference compound]
Body weight (with tumor) D0 [1]: 18.4 g | Body weight (with tumor) D18 [1]: 16.0 g | RTV at D18 [1]: 2.85 ± 1.52 | Tumor volume D0 [1]: 127 ± 24 mm^3 | Tumor volume D18 [1]: 366 ± 201 mm^3 | T/C ([1]; D18): 34.9* % | Body weight (with tumor) D0 [2]: 16.7 g | Body weight (with tumor) D18 [2]: 15.3 g | RTV at D18 [2]: 8.89 ± 5.39 | Tumor volume D0 [2]: 110 ± 12 mm^3 | Tumor volume D18 [2]: 944 ± 536 mm^3 | T/C ([2]; D18): 33.7* %

O=C(c1cc(Cc2n[nH]c(=O)c3ccccc23)ccc1F)N1CCN(C(=O)C2CC2)CC1 [Olaparib, olaparib, reference compound]
Cell Death Rate/% 1 (H526; 48 hours, Table 10): 5.25% | Cell Death Rate/% 2 (H526; 48 hours, Table 10): 4.92% | Cell Death Rate/% 3 (H526; 48 hours, Table 10): 5.13% | Cell Death Rate/% mean (H526; 48 hours, Table 10): 5.10% | Cell Death Rate/% 1 (H69; 48 hours, Table 10): 6% | Cell Death Rate/% 2 (H69; 48 hours, Table 10): 6.25% | Cell Death Rate/% 3 (H69; 48 hours, Table 10): 6.54% | Cell Death Rate/% mean (H69; 48 hours, Table 10): 6.26% | Cell Death Rate/% 1 (H446; 48 hours, Table 10): 12.01% | Cell Death Rate/% 2 (H446; 48 hours, Table 10): 12.55% | Cell Death Rate/% 3 (H446; 48 hours, Table 10): 12.24% | Cell Death Rate/% mean (H446; 48 hours, Table 10): 12.27%

Nc1ccn([C@@H]2O[C@H](CO)[C@@H](O)C2(F)F)c(=O)n1 [Gemcitabine, gemcitabine]
Body weight (without tumor) at D8 ([3]; 10 mg/kg I.V., D1): 22.31 g | TGI ([3]; 10 mg/kg I.V., D1): 57.51% | Tumor weight ([3]; 10 mg/kg I.V., D1): 0.86 g | Body weight (without tumor) at D8 ([3]; 20 mg/kg IV, D1): 22.35 g | TGI ([3]; 20 mg/kg IV, D1): 81.53% | Tumor weight ([3]; 20 mg/kg IV, D1): 0.38 g

CC[C@H](Nc1ncnc2[nH]cnc12)c1nc2cccc(F)c2c(=O)n1-c1ccccc1 [CAL 101, reference compound]
T/C (%) D21 (MV-4-11 cells [4]; 90 mg/kg P.O.): 50% | TGI (%) D21 (MV-4-11 cells [4]; 90 mg/kg P.O.): 50% | Tumor volume D0 (MV-4-11 cells [4]; 90 mg/kg P.O.): 79.6 ± 3.1 mm^3 | Tumor volume D21 (MV-4-11 cells [4]; 90 mg/kg P.O.): 442.2 ± 93.8 mm^3 | Complete remission (MV-4-11 cells [4]; 90 mg/kg P.O.): 0 | T/C (%) D21 (MV-4-11 cells [4]; 180 mg/kg P.O.): 39% | TGI (%) D21 (MV-4-11 cells [4]; 180 mg/kg P.O.): 61% | Tumor volume D0 (MV-4-11 cells [4]; 180 mg/kg P.O.): 78.9 ± 1.9 mm^3 | Tumor volume D21 (MV-4-11 cells [4]; 180 mg/kg P.O.): 361.7 ± 93.8 mm^3 | Complete remission (MV-4-11 cells [4]; 180 mg/kg P.O.): 0

COc1cccc2c1C(=O)c1c(O)c3c(c(O)c1C2=O)C[C@@](O)(C(C)=O)C[C@@H]3O[C@H]1C[C@H](N)[C@H](O)[C@H](C)O1 [Daunorubicin, daunorubicin, reference compound]
T/C (MV-4-11 cells [5]; D11): 38% | TGI (MV-4-11 cells [5]; D11): 62% | Tumor volume D0 (MV-4-11 cells [5]; in mm³): 152.9 | Tumor volume D11 (MV-4-11 cells [5]; in mm³): 1167.3

Nc1nc2[nH]cc(CCc3ccc(C(=O)N[C@@H](CCC(=O)O)C(=O)O)cc3)c2c(=O)[nH]1 [Pemetrexed disodium, pemetrexed disodium, reference compound]
Body weight (without tumor) D0 [6]: 24.0 g | Body weight (without tumor) D14 [6]: 15.3 g | RTV at D14 [6]: 9.14 ± 2.86 | Tumor volume D0 [6]: 138 ± 33 mm^3 | Tumor volume D14 [6]: 1209 ± 244 mm^3 | T/C ([6]; D14): 43.3* %

O=P1(N(CCCl)CCCl)NCCCO1 (stereo not drawn) [CTX, cyclophosphamide, reference compound]
Body weight (without tumor) at D8 ([3]; 30 mg/kg I.V., D1-7): 21.22 g | TGI ([3]; 30 mg/kg I.V., D1-7): 79.00% | Tumor weight ([3]; 30 mg/kg I.V., D1-7): 0.43 g | Body weight (without tumor) D1 [7]: 21.8 g | Body weight (without tumor) D8 [7]: 26.8 g | Tumor weight on Day 8 [7]: 0.60 ± 0.18 g | TGI ([7]; tumor weight, Day 8): 68.8* %

CNCc1ccc(-c2[nH]c3cc(F)cc4c3c2CCNC4=O)cc1 [Rucaparib, rucaparib, reference compound]
Cell Death Rate/% 1 (H526; Example 10, Table 11): 6.73% | Cell Death Rate/% 2 (H526; Example 10, Table 11): 6.57% | Cell Death Rate/% 3 (H526; Example 10, Table 11): 6.19% | Cell Death Rate/% mean (H526; Example 10, Table 11): 6.50% | Cell Death Rate/% 1 (H69; Example 10, Table 11): 7.51% | Cell Death Rate/% 2 (H69; Example 10, Table 11): 7.3% | Cell Death Rate/% 3 (H69; Example 10, Table 11): 8.11% | Cell Death Rate/% mean (H69; Example 10, Table 11): 7.64% | Cell Death Rate/% 1 (H446; Example 10, Table 11): 14% | Cell Death Rate/% 2 (H446; Example 10, Table 11): 13.79% | Cell Death Rate/% 3 (H446; Example 10, Table 11): 14.48% | Cell Death Rate/% mean (H446; Example 10, Table 11): 14.09%
